# From ChEMBL document CHEMBL1201862, “PubChem BioAssay data set” (2004)
#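 Cultured in 96-well plates, cells were exposed to test compound for 48 hours across five concentrations. At the GI50, growth is halved.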 The source made the active and inactive calls. No stated cut-off is given here; in the data, active = GI50 up to about 1.1 µM and inactive = higher.
# How the values were obtained:
# Test in all cases: NCI tumour cell line growth inhibition, 48 h
# 786-0 = tested on: 786-0
# RPMI-8226 = tested on: RPMI-8226
# CAKI-1 = tested on: CAKI-1
# HL-60 = tested on: HL-60
# A498 = tested on: A498
# LOX IMVI = tested on: LOX IMVI
# NCI-H522 = tested on: NCI-H522
# NCI-H23 = tested on: NCI-H23
# HOP-92 = tested on: HOP-92
# OVCAR-4 = tested on: OVCAR-4
# HCT-116 = tested on: HCT-116
# SN12C = tested on: SN12C
# SK-MEL-5 = tested on: SK-MEL-5
# UACC-257 = tested on: UACC-257
# M14 = tested on: M14
# SK-MEL-28 = tested on: SK-MEL-28
# SF-268 = tested on: SF-268
# NCI-H460 = tested on: NCI-H460
# DMS-114 = tested on: DMS-114
# HCT-15 = tested on: HCT-15
# SNB-19 = tested on: SNB-19
# OVCAR-5 = tested on: OVCAR-5
# HT-29 = tested on: HT-29
# HOP-62 = tested on: HOP-62
# U-251 = tested on: U-251
# NCI-H226 = tested on: NCI-H226
# SR = tested on: SR
# XF498 = tested on: XF498
# SF-295 = tested on: SF-295
# ACHN = tested on: ACHN
# SNB-75 = tested on: SNB-75
# KM12 = tested on: KM12
# HCC 2998 = tested on: HCC 2998
# MOLT-4 = tested on: MOLT-4
# SK-OV-3 = tested on: SK-OV-3
# TK-10 = tested on: TK-10
# LXFL 529 = tested on: LXFL 529
# A549 = tested on: A549
# DLD-1 = tested on: DLD-1
# SNB-78 = tested on: SNB-78
# SW-620 = tested on: SW-620
# HOP-18 = tested on: HOP-18
# SK-MEL-2 = tested on: SK-MEL-2
# RXF 393 = tested on: RXF 393
# Malme-3M = tested on: Malme-3M
# CCRF-CEM = tested on: CCRF-CEM
# UO-31 = tested on: UO-31
# K562 = tested on: K562
# SF-539 = tested on: SF-539
# UACC-62 = tested on: UACC-62
# IGROV-1 = tested on: IGROV-1
# DMS-273 = tested on: DMS-273
# M19-MEL = tested on: M19-MEL
# COLO 205 = tested on: COLO 205
# OVCAR-3 = tested on: OVCAR-3
# EKVX = tested on: EKVX
# OVCAR-8 = tested on: OVCAR-8
# KM-20L2 = tested on: KM-20L2
structure (smiles),measurement,setting,value
CC1=C(C#N)C(=O)CC(c2ccc(Cl)cc2)N(C)N1 (stereo unspecified),GI50,786-0,> 100 µM (inactive)
same,GI50,RPMI-8226,> 100 µM (inactive)
same,GI50,CAKI-1,> 100 µM (inactive)
same,GI50,HL-60,> 100 µM (inactive)
same,GI50,A498,> 100 µM (inactive)
same,GI50,LOX IMVI,> 100 µM (inactive)
same,GI50,NCI-H522,> 100 µM (inactive)
same,GI50,NCI-H23,> 100 µM (inactive)
same,GI50,HOP-92,> 100 µM (inactive)
same,GI50,OVCAR-4,> 100 µM (inactive)
same,GI50,HCT-116,> 100 µM (inactive)
same,GI50,SN12C,> 100 µM (inactive)
same,GI50,SK-MEL-5,> 100 µM (inactive)
same,GI50,UACC-257,> 100 µM (inactive)
same,GI50,M14,> 100 µM (inactive)
same,GI50,SK-MEL-28,> 100 µM (inactive)
same,GI50,SF-268,> 100 µM (inactive)
same,GI50,NCI-H460,> 100 µM (inactive)
same,GI50,DMS-114,> 100 µM (inactive)
same,GI50,HCT-15,> 100 µM
same,GI50,SNB-19,> 100 µM (inactive)
same,GI50,OVCAR-5,> 100 µM (inactive)
same,GI50,HT-29,> 100 µM (inactive)
same,GI50,HOP-62,> 100 µM (inactive)
same,GI50,U-251,> 100 µM (inactive)
same,GI50,NCI-H226,> 100 µM (inactive)
same,GI50,SR,> 100 µM (inactive)
same,GI50,XF498,> 100 µM (inactive)
same,GI50,SF-295,> 100 µM (inactive)
same,GI50,ACHN,> 100 µM (inactive)
same,GI50,SNB-75,> 100 µM (inactive)
same,GI50,KM12,> 100 µM (inactive)
same,GI50,HCC 2998,> 100 µM (inactive)
same,GI50,MOLT-4,> 100 µM (inactive)
same,GI50,SK-OV-3,> 100 µM (inactive)
same,GI50,TK-10,> 100 µM (inactive)
same,GI50,LXFL 529,> 100 µM (inactive)
same,GI50,A549,> 100 µM (inactive)
same,GI50,DLD-1,> 100 µM (inactive)
same,GI50,SNB-78,> 100 µM (inactive)
same,GI50,SW-620,> 100 µM (inactive)
same,GI50,HOP-18,24.4 µM (inactive)
same,GI50,SK-MEL-2,> 100 µM (inactive)
same,GI50,RXF 393,> 100 µM (inactive)
same,GI50,Malme-3M,> 100 µM (inactive)
CCNC1CC(n2cc(C)c(=O)[nH]c2=O)OC1CO (stereo unspecified),GI50,786-0,> 100 µM (inactive)
same,GI50,RPMI-8226,> 100 µM (inactive)
same,GI50,CCRF-CEM,> 100 µM (inactive)
same,GI50,CAKI-1,> 100 µM (inactive)
same,GI50,HL-60,> 100 µM (inactive)
same,GI50,A498,> 100 µM (inactive)
same,GI50,NCI-H522,> 100 µM (inactive)
same,GI50,NCI-H23,> 100 µM (inactive)
same,GI50,HOP-92,> 100 µM (inactive)
same,GI50,OVCAR-4,> 100 µM (inactive)
same,GI50,HCT-116,> 100 µM (inactive)
same,GI50,UO-31,> 100 µM (inactive)
same,GI50,K562,> 100 µM (inactive)
same,GI50,SN12C,> 100 µM (inactive)
same,GI50,M14,> 100 µM (inactive)
same,GI50,SK-MEL-28,> 100 µM (inactive)
same,GI50,SF-268,> 100 µM (inactive)
same,GI50,NCI-H460,> 100 µM (inactive)
same,GI50,DMS-114,> 100 µM (inactive)
same,GI50,SF-539,> 100 µM (inactive)
same,GI50,UACC-62,> 100 µM (inactive)
same,GI50,HOP-62,> 100 µM (inactive)
same,GI50,NCI-H226,> 100 µM (inactive)
same,GI50,SR,> 100 µM (inactive)
same,GI50,XF498,> 100 µM (inactive)
same,GI50,SNB-75,> 100 µM (inactive)
same,GI50,HCC 2998,> 100 µM (inactive)
same,GI50,MOLT-4,> 100 µM (inactive)
same,GI50,SK-OV-3,> 100 µM (inactive)
same,GI50,IGROV-1,> 100 µM (inactive)
same,GI50,DMS-273,> 100 µM (inactive)
same,GI50,LXFL 529,> 100 µM (inactive)
same,GI50,DLD-1,> 100 µM (inactive)
same,GI50,SNB-78,> 100 µM (inactive)
same,GI50,SK-MEL-2,> 100 µM (inactive)
same,GI50,M19-MEL,> 100 µM (inactive)
same,GI50,Malme-3M,> 100 µM (inactive)
same,GI50,COLO 205,> 100 µM (inactive)
C#CCN(N=O)C(=O)ON1C(=O)CCC1=O,GI50,786-0,> 100 µM (inactive)
same,GI50,RPMI-8226,> 100 µM (inactive)
same,GI50,OVCAR-3,> 100 µM (inactive)
same,GI50,CCRF-CEM,> 100 µM (inactive)
same,GI50,EKVX,> 100 µM (inactive)
same,GI50,HL-60,> 100 µM (inactive)
same,GI50,A498,> 100 µM (inactive)
same,GI50,LOX IMVI,> 100 µM (inactive)
same,GI50,NCI-H522,> 100 µM (inactive)
same,GI50,NCI-H23,> 100 µM (inactive)
same,GI50,HOP-92,> 100 µM (inactive)
same,GI50,OVCAR-4,> 100 µM (inactive)
same,GI50,HCT-116,> 100 µM (inactive)
same,GI50,UO-31,> 100 µM (inactive)
same,GI50,K562,> 100 µM (inactive)
same,GI50,SN12C,> 100 µM (inactive)
same,GI50,SK-MEL-5,> 100 µM (inactive)
same,GI50,UACC-257,> 100 µM (inactive)
same,GI50,M14,> 100 µM (inactive)
same,GI50,SK-MEL-28,> 100 µM (inactive)
same,GI50,SF-268,> 100 µM (inactive)
same,GI50,NCI-H460,> 100 µM (inactive)
same,GI50,DMS-114,> 100 µM (inactive)
same,GI50,SF-539,> 100 µM (inactive)
same,GI50,HCT-15,> 100 µM
same,GI50,OVCAR-8,> 100 µM (inactive)
same,GI50,SNB-19,> 100 µM (inactive)
same,GI50,UACC-62,> 100 µM (inactive)
same,GI50,OVCAR-5,61.8 µM (inactive)
same,GI50,HT-29,> 100 µM (inactive)
same,GI50,HOP-62,> 100 µM (inactive)
same,GI50,U-251,74.8 µM (inactive)
same,GI50,SF-295,> 100 µM (inactive)
same,GI50,ACHN,> 100 µM (inactive)
same,GI50,SNB-75,> 100 µM (inactive)
same,GI50,KM12,> 100 µM (inactive)
same,GI50,MOLT-4,> 100 µM (inactive)
same,GI50,SK-OV-3,> 100 µM (inactive)
same,GI50,TK-10,> 100 µM (inactive)
same,GI50,IGROV-1,> 100 µM (inactive)
same,GI50,DMS-273,> 100 µM (inactive)
same,GI50,LXFL 529,> 100 µM (inactive)
same,GI50,A549,> 100 µM (inactive)
same,GI50,DLD-1,> 100 µM (inactive)
same,GI50,SNB-78,> 100 µM (inactive)
same,GI50,KM-20L2,> 100 µM (inactive)
same,GI50,SW-620,> 100 µM (inactive)
same,GI50,HOP-18,> 100 µM (inactive)
same,GI50,SK-MEL-2,> 100 µM (inactive)
same,GI50,RXF 393,> 100 µM (inactive)
same,GI50,M19-MEL,> 100 µM (inactive)
same,GI50,Malme-3M,> 100 µM (inactive)
same,GI50,COLO 205,> 100 µM (inactive)
